Measurements reported in patent US11111242B2, “Pyrrolo[2,3-d]pyrimidinyl, pyrrolo[2,3-b]pyrazinyl and pyrrolo[2,3-d]pyridinyl acrylamides” (Pfizer Inc., priority 2013, dated 2021).

test system: IL-15 induced P-STAT5 in human PBMC (total lymphocytes); assay: PBMC IL-15 Induced P-STAT5; format: cell-based; conditions: Homo sapiens, PBMC, IL-15 stimulated, read-out: PBMC IL15-pSTAT5 IC50
Protocol: PBMC IL-15 Induced P-STAT5
Frozen human PBMC (200-250 million cells/vial) was thawed at 37° C. The cells were transferred to 10 mL warm medium in a 50-mL conical tube, and centrifuged at 1,200 RPM at room temperature for 5 min. The supernatant was aspirated. […] After adding 47 ml D-PBS (37° C.) to PBMC/FBS suspension, centrifuging at 1,200 RPM at room temperature for 5 min, and aspirating the supernatant, the cells were resuspended in 20 mL warm RPMI medium. Ninety μL of cell suspension were pipetted per well in a 96-well, deep-well, V-bottom plate, and the plate was incubated at 37° C. for 30 min. […] After adding 0.8 mL staining buffer per well, the plates were centrifuged at 1,200 RPM (Beckman GS-6R or Sorvall Legend) at room temperature for 5 min, and again the supernatant was aspirated using a 8-channel or 12-channel manifold. The plate was vortexed, and 0.35 mL 90% methanol/10% H2O (−20° C.) was added per well, and the plate incubated on ice for 20 min. After again adding 0.8 mL staining buffer per well, the plates were centrifuged at 1,200 RPM (Beckman GS-6R or Sorvall Legend) at room temperature for 5 min, and again the supernatant was aspirated using a 8-channel or 12-channel manifold, and then 0.8 mL Staining buffer was added per well. After once again adding 0.8 mL staining buffer per well, the plates were centrifuged at 1,200 RPM (Beckman GS-6R or Sorvall Legend) at room temperature for 5 min, and again the supernatant was aspirated using a 8-channel or 12-channel manifold. […] Samples of 250 μL/well were transferred to a 96-well U-bottom plate, and the FACS analysis was performed gating on total lymphocytes. Samples were analyzed using a BD Calibur™ or BD FACSCanto™ flow cytometer equipped with the BD High Throughput Sampler.

Going from `C=CC(=O)N1CCC[C@@H](Nc2ncnc3[nH]cc(-c4cccnc4)c23)C1` [Example 26, 1-[(3R)-3-{[5-(pyridin-3-yl)-7H-pyrrolo[2,3-d]pyrimidin-4-yl]amino}piperidin-1-yl]prop-2-en-1-one] to `C=CC(=O)N1CCC[C@@H](Nc2nc(Nc3cccnc3)nc3[nH]ccc23)C1` [Example 63, 1-[(3R)-3-{[2-(Pyridin-3-ylamino)-7H-pyrrolo[2,3-d]pyrimidin-4-yl]amino}piperidin-1-yl]prop-2-en-1-one], the IC50 rises from 254 nM to 1380 nM (5.4-fold). The first is the more potent here.

Going from `C=CC(=O)N1CC[C@H]2CCN(c3ncnc4[nH]ccc34)[C@H]2C1` (racemic) [Example 21, rac-1-((3aR,7aR)-1-(7H-Pyrrolo[2,3-d]pyrimidin-4-yl)hexahydro-1H-pyrrolo[2,3-c]pyridin-6(2H)-yl)prop-2-en-1-one] to `C=CC(=O)N1CCC(Nc2cnc3[nH]cc(-c4ccc(C)nc4)c3n2)CC1` [Example 199, 1-(4-{[7-(6-methylpyridin-3-yl)-5H-pyrrolo[2,3-b]pyrazin-2-yl]amino}piperidin-1-yl)prop-2-en-1-one], the IC50 rises from 236 nM to 735 nM (3.1-fold). The first is the more potent here.

First: C=CC(=O)N[C@H]1C[C@@H](Nc2cnc3[nH]cc(C(=O)NC(C)C)c3n2)C1 [Example 184, 2-{[cis-3-(acryloylamino)cyclobutyl]amino}-N-(propan-2-yl)-5H-pyrrolo[2,3-b]pyrazine-7-carboxamide]
Second: C=CC(=O)N1CC[C@@H]2CN(c3cnc4[nH]cc(C(=O)NC(C)C)c4n3)C[C@@H]21 [Example 170, 2-[(3aR,6aR)-1-acryloylhexahydropyrrolo[3,4-b]pyrrol-5(1H)-yl]-N-(propan-2-yl)-5H-pyrrolo[2,3-b]pyrazine-7-carboxamide]
The IC50 of the first is 2.5-fold higher: 3410 nM for the first, 1370 nM for the second.

`C=CC(=O)N1CCC(Oc2cnc3[nH]cc(-c4ccnc(C)c4)c3n2)CC1` [Example 220, 1-(4-{[7-(2-methylpyridin-4-yl)-5H-pyrrolo[2,3-b]pyrazin-2-yl]oxy}piperidin-1-yl)prop-2-en-1-one] was tested, and the IC50 was 464 nM.

same assay, conditions: IL-15 stimulated, read-out: PBMC IL15-pSTAT5 IC50

Compared with `C=CC(=O)N1CCC(Nc2cnc3[nH]cc(C(=O)N[C@H]4CCC[C@H](CC#N)C4)c3n2)CC1` [Example 262, 2-[(1-acryloylpiperidin-4-yl)amino]-N-[(1S,3S)-3-(cyanomethyl)cyclohexyl]-5H-pyrrolo[2,3-b]pyrazine-7-carboxamide], `C=CC(=O)N1CCC(Nc2cnc3[nH]cc(C(=O)N[C@@H]4CCC[C@H]4F)c3n2)CC1` [Example 237, 2-[(1-acryloylpiperidin-4-yl)amino]-N-[(1R,2R)-2-fluorocyclopentyl]-5H-pyrrolo[2,3-b]pyrazine-7-carboxamide] is 17-fold lower in IC50: 1330 nM for the first, 80.1 nM for the second.

Going from `C=CC(=O)N1CCC(Nc2cnc3[nH]cc(C(=O)N4CCCC4)c3n2)CC1` [Example 287, 1-(4-{[7-(pyrrolidin-1-ylcarbonyl)-5H-pyrrolo[2,3-b]pyrazin-2-yl]amino}piperidin-1-yl)prop-2-en-1-one] to `C=CC(=O)N1CCC(Nc2cnc3[nH]cc(C(=O)NCC4(O)CCC(C)C4)c3n2)CC1` (centres unmarked) [Example 235, 2-[(1-acryloylpiperidin-4-yl)amino]-N-[(1-hydroxy-3-methylcyclopentyl)methyl]-5H-pyrrolo[2,3-b]pyrazine-7-carboxamide], the IC50 falls from 7370 nM to 1700 nM (4.3-fold). The second is the more potent here.

Compared with `C=CC(=O)N1CCC[C@@H](Nc2ncnc3[nH]cc(-c4cncc(F)c4)c23)C1` [Example 23, 1-[(3R)-3-{[5-(5-fluoropyridin-3-yl)-7H-pyrrolo[2,3-d]pyrimidin-4-yl]amino}piperidin-1-yl]prop-2-en-1-one], `C=CC(=O)N1CCC[C@@H](Nc2ncnc3[nH]cc(CC#N)c23)C1` [Example 20, (R)-2-(4-((1-Acryloylpiperidin-3-yl)amino)-7H-pyrrolo[2,3-d]pyrimidin-5-yl)acetonitrile] is 1.9-fold higher in IC50: 188 nM for the first, 362 nM for the second.

`C=CC(=O)N1C[C@H](Nc2ncnc3[nH]cc(C(N)=O)c23)CC[C@@H]1C` [Example 164, 4-{[(3R,6S)-1-Acryloyl-6-methylpiperidin-3-yl]amino}-7H-pyrrolo[2,3-d]pyrimidine-5-carboxamide] and `C=CC(=O)N1CC2CCC1CN2c1cnc2[nH]cc(C(=O)NC(C)C)c2n1` (centres unmarked) [Example 308, 2-(5-acryloyl-2,5-diazabicyclo[2.2.2]oct-2-yl)-N-(propan-2-yl)-5H-pyrrolo[2,3-b]pyrazine-7-carboxamide] are within 1.5-fold of each other in IC50: 1650 nM for the first, 2240 nM for the second.

Compared with `C=CC(=O)N1CCC(Nc2cnc3[nH]cc(C(=O)N[C@@H](C(C)C)[C@H](O)C(F)(F)F)c3n2)CC1` [Example 252, 2-[(1-acryloylpiperidin-4-yl)amino]-N-[(2S,3S)-1,1,1-trifluoro-2-hydroxy-4-methylpentan-3-yl]-5H-pyrrolo[2,3-b]pyrazine-7-carboxamide], `C=CC(=O)N1CCC(Nc2cnc3[nH]cc(C(=O)NCC4(O)CC[C@@H](C)C4)c3n2)CC1` (stereo partly drawn) [Example 239, 2-[(1-acryloylpiperidin-4-yl)amino]-N-{[(3R)-1-hydroxy-3-methylcyclopentyl]methyl}-5H-pyrrolo[2,3-b]pyrazine-7-carboxamide] is 2.8-fold higher in IC50: 673 nM for the first, 1900 nM for the second.

`C=CC(=O)N1CCC(Nc2cnc3[nH]cc(-c4ccc(S(C)(=O)=O)cc4)c3n2)CC1` [Example 203, 1-[4-({7-[4-(methylsulfonyl)phenyl]-5H-pyrrolo[2,3-b]pyrazin-2-yl}amino)piperidin-1-yl]prop-2-en-1-one] and `C=CC(=O)N1CCC(Nc2cnc3[nH]cc(-c4cccc(C(=O)NC)c4)c3n2)CC1` [Example 204, 3-{2-[(1-acryloylpiperidin-4-yl)amino]-5H-pyrrolo[2,3-b]pyrazin-7-yl}-N-methylbenzamide] are within 1.5-fold of each other in IC50: 1180 nM for the first, 855 nM for the second.

Going from `C=CC(=O)N1C[C@H](Nc2ncnc3[nH]ccc23)C[C@@H](OC)C1` [Example 77, 1-[(3R,5R)-3-Methoxy-5-(7H-pyrrolo[2,3-d]pyrimidin-4-ylamino)piperidin-1-yl]prop-2-en-1-one] to `C=CC(=O)N1C[C@@H](C)N(c2cnc3[nH]cc(C(=O)NC(C)C)c3n2)[C@@H](C)C1` [Example 328, 2-[(2R,6S)-4-acryloyl-2,6-dimethylpiperazin-1-yl]-N-(propan-2-yl)-5H-pyrrolo[2,3-b]pyrazine-7-carboxamide], the IC50 falls from 3970 nM to 891 nM (4.5-fold). The second is the more potent here.

Compared with `C=CC(=O)N1CCC(Oc2cnc3[nH]cc(-c4cccnc4F)c3n2)CC1` [Example 217, 1-(4-{[7-(2-fluoropyridin-3-yl)-5H-pyrrolo[2,3-b]pyrazin-2-yl]oxy}piperidin-1-yl)prop-2-en-1-one], `C=CC(=O)N1CCC(Oc2cnc3[nH]cc(-c4ccnc(F)c4)c3n2)CC1` [Example 222, 1-(4-{[7-(2-fluoropyridin-4-yl)-5H-pyrrolo[2,3-b]pyrazin-2-yl]oxy}piperidin-1-yl)prop-2-en-1-one] is 5.9-fold higher in IC50: 129 nM for the first, 757 nM for the second. The first is the more potent here.

`C=CC(=O)N1CCC(Nc2cnc3[nH]cc(C(=O)NCCCCCCCCC#N)c3n2)CC1` [Example 260, 2-[(1-acryloylpiperidin-4-yl)amino]-N-(8-cyanooctyl)-5H-pyrrolo[2,3-b]pyrazine-7-carboxamide] and `C=CC(=O)N1CCN(c2cnc3[nH]cc(C(=O)NC(C)C)c3n2)C2(CC2)C1` [Example 313, 2-(7-acryloyl-4,7-diazaspiro[2.5]oct-4-yl)-N-(propan-2-yl)-5H-pyrrolo[2,3-b]pyrazine-7-carboxamide] are within 1.5-fold of each other in IC50: 575 nM for the first, 706 nM for the second.

`C=CC(=O)N1CCC(Oc2cnc3[nH]cc(-c4cncnc4)c3n2)CC1` [Example 215, 1-(4-{[7-(pyrimidin-5-yl)-5H-pyrrolo[2,3-b]pyrazin-2-yl]oxy}piperidin-1-yl)prop-2-en-1-one] and `C=CC(=O)N1CCC(Oc2cnc3[nH]cc(-c4cnc(OC)nc4)c3n2)CC1` [Example 219, 1-(4-{[7-(2-methoxypyrimidin-5-yl)-5H-pyrrolo[2,3-b]pyrazin-2-yl]oxy}piperidin-1-yl)prop-2-en-1-one] are within 1.5-fold of each other in IC50: 1260 nM for the first, 987 nM for the second.

test system: IL-15 induced STAT5 phosphorylation in Human Whole Blood (total lymphocytes); assay: HWB IL-15 Induced STAT5 Phosphorylation Assay; format: cell-based; conditions: Lymphocyte, IL-15 stimulated, read-out: HWB-IL15-pSTAT5 IC50
Protocol: HWB IL-15 Induced STAT5 Phosphorylation Assay
After mixing and incubating for 45 minutes at 37° C., 5 μl D-PBS (unstimulated control) or 20× stocks of 5 μl human IL-15 (final concentration is 50 ng/ml) were added, and mixed three times. After incubating 15 minutes at 37° C., 1× Lyse/Fix Buffer (BD Phosflow 5× Lyse/Fix Buffer) was added to all wells at 1000 μl/well, then incubated for 20 minutes at 37° C. and spun 5 mins at 1200 rpm. […] Following incubating at 4° C. over night, all the samples were transferred to 96-well polypropylene U-bottom plate, and checked by flow cytometry gated on total lymphocytes.

Going from `C=CC(=O)N1CC(Nc2ncnc3[nH]ccc23)CCC1CO` (centres unmarked) [Example 52, 1-[2-(Hydroxymethyl)-5-(7H-pyrrolo[2,3-d]pyrimidin-4-ylamino)piperidin-1-yl]prop-2-en-1-one] to `C=CC(=O)N1CC[C@@H]2CCN(c3ncnc4[nH]ccc34)[C@@H]2C1` (single isomer, unassigned) [Example 8], the IC50 rises from 235 nM to 399 nM (1.7-fold). The first is the more potent here.
